The source made the active and inactive calls.
Legend:
[1] = target: T1, Mannose-6-phosphate isomerase (Homo sapiens, UniProt P34949); experiment: human PMI inhibitors, high substrate, primary screen, biochemical, fluorescence intensity, high mannose 6-phosphate (AID 1220)
T1 sequence (P34949 whole entry): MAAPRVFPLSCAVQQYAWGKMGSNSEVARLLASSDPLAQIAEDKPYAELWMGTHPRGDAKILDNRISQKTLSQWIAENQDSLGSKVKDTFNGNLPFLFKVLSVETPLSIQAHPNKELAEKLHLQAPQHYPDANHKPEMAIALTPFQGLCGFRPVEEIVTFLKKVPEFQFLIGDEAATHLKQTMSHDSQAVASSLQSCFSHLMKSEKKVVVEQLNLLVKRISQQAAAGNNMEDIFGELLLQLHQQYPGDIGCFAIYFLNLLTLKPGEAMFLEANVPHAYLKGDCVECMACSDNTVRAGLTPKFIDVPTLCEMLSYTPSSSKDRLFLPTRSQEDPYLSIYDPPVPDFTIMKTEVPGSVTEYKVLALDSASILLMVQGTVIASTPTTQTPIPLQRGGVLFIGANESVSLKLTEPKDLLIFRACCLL

[2] = target: Estrogen receptor beta (Homo sapiens, UniProt Q92731); experiment: ERβ–SRC-3 coactivator interaction inhibitors, confirmation, orthogonal assay, biochemical, ELISA, streptavidin-HRP readout (AID 1060)
[3] = C. albicans growth with fluconazole, confirmation, fluorescence, retest (AID 2467); type: functional, cell-based
[4] = target: Alkaline phosphatase, placental type (Homo sapiens, UniProt P05187); experiment: PLAP enzyme inhibitors, confirmation, biochemical, luminescence (AID 1512); type: functional
[5] = target: Genome polyprotein (dengue virus type 2, UniProt P29990); experiment: Dengue-2 NS5 methyltransferase inhibitors, primary screen, biochemical, confirmation dose response (AID 588689); type: functional
[6] = target: T2, Bcl-2-like protein 10 (Homo sapiens, UniProt Q9HD36); experiment: displacers of TR3 peptide from Bcl-B, primary screen, selectivity assay for Bfl-1 inhibitor project, biochemical, fluorescence polarization, FITC-TR3 peptide (AID 748);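 note: fluorescence polarization from a fluorescein-labelled TR3 peptide binding purified Bcl-B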
T2 sequence (Q9HD36 whole entry): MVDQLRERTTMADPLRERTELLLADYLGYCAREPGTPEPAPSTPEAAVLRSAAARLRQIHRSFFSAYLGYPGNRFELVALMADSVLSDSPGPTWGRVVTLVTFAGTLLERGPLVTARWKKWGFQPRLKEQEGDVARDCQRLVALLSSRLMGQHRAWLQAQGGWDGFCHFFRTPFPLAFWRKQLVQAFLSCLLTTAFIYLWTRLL

[7] = NIH-3T3 fibroblast cytotoxicity, dose response, cytotoxicity control, cell-based, fluorescence, Alamar Blue, secondary assay (AID 2327); type: functional;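 note: NIH-3T3 mouse fibroblasts cultured with fluconazole at 8 µg/mL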
[8] = target: T3, Sphingosine 1-phosphate receptor 4 (Homo sapiens, UniProt O95977); experiment: Late-stage fluorescence dose response cell-based assay to identify agonists of the Sphingosine 1-Phosphate Receptor 4 (S1P4): purchased compounds EC50. [Related pubchem assays (depositor defined):AID1509, AID1523, AID1563, AID1686, AID1701, AID1801]; type: functional
T3 sequence (O95977 whole entry): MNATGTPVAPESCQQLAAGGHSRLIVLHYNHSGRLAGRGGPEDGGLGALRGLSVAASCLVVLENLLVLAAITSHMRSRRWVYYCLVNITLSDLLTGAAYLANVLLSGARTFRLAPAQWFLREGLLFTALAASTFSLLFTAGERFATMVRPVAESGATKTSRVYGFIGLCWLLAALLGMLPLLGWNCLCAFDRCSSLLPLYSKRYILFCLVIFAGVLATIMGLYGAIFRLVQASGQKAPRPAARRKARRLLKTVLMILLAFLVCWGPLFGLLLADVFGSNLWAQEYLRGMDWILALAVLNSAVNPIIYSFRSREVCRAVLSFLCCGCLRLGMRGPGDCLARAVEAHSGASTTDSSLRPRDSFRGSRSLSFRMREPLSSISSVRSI

[9] = target: G-protein coupled receptor 55 (Homo sapiens, UniProt Q9Y2T6); experiment: GPR55 antagonists blocking LPI-driven arrestin recruitment, primary screen, imaging, U2OS, beta-arrestin-GFP, LPI agonist (AID 2013); type: functional;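 note: antagonist potency measured as reduced agonist-driven arrestin aggregation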
[10] = target: DNA dC->dU-editing enzyme APOBEC-3A (Homo sapiens, UniProt P31941); experiment: Dose Response confirmation of small molecule APOBEC3A DNA Deaminase Inhibitors via a fluorescence-based single-stranded DNA deaminase assay. [Related pubchem assays (depositor defined):AID493011, AID493024]; type: functional
[11] = target: DNA dC->dU-editing enzyme APOBEC-3G (Homo sapiens, UniProt Q9HC16); type: functional;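 note: Dose-response counterscreen measuring inhibition of APOBEC3G DNA deaminase activity, run while confirming APOBEC3A inhibitors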
[12] = target: T4, Runt-related transcription factor 1/Core-binding factor subunit beta (Homo sapiens, UniProt Q01196+Q13951); experiment: inhibitors of RUNX1 Runt–CBFb-SMMHC binding, biochemical, TR-FRET (AID 1438); type: protein assay
[13] = target: T4, Runt-related transcription factor 1/Core-binding factor subunit beta; experiment: inhibitors of RUNX1 Runt–CBFb-SMMHC binding, primary screen, biochemical, FRET, Cerulean-Runt, Venus-CBFb-SMMHC, uHTS (AID 1434); type: protein assay;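 note: partner is the CBFb-SMMHC leukemia fusion protein rather than wild-type CBFb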
[14] = target: T5, Voltage-gated N-type calcium channel alpha-1B subunit/Amyloid beta A4 precursor protein-binding family A member 1 (Homo sapiens, UniProt Q00975+Q02410); type: protein assay
[15] = target: T5, Voltage-gated N-type calcium channel alpha-1B subunit/Amyloid beta A4 precursor protein-binding family A member 1; type: protein assay; remark: listed apart in the source
[16] = target: T5, Voltage-gated N-type calcium channel alpha-1B subunit/Amyloid beta A4 precursor protein-binding family A member 1; experiment: disruptors of Mint-PDZ/N-type channel peptide interaction – biochemical, HTRF, set 2, SAR follow-up (AID 434980); type: functional
[17] = target: T5, Voltage-gated N-type calcium channel alpha-1B subunit/Amyloid beta A4 precursor protein-binding family A member 1; experiment: disruptors of Mint-PDZ/N-type channel peptide interaction – biochemical, HTRF, SAR follow-up (AID 2489); type: functional
[18] = target: T6, Short transient receptor potential channel 4 (Mus musculus, UniProt Q9QUQ5); experiment: mouse TRPC4 channel inhibitors, dose response, cell-based, HEK293 TRPC4/mu-opioid, Fluo-4 calcium (AID 434942); type: functional;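 note: potency of inhibitors blocking the TRPC4 calcium response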
T6 sequence (Q9QUQ5 whole entry): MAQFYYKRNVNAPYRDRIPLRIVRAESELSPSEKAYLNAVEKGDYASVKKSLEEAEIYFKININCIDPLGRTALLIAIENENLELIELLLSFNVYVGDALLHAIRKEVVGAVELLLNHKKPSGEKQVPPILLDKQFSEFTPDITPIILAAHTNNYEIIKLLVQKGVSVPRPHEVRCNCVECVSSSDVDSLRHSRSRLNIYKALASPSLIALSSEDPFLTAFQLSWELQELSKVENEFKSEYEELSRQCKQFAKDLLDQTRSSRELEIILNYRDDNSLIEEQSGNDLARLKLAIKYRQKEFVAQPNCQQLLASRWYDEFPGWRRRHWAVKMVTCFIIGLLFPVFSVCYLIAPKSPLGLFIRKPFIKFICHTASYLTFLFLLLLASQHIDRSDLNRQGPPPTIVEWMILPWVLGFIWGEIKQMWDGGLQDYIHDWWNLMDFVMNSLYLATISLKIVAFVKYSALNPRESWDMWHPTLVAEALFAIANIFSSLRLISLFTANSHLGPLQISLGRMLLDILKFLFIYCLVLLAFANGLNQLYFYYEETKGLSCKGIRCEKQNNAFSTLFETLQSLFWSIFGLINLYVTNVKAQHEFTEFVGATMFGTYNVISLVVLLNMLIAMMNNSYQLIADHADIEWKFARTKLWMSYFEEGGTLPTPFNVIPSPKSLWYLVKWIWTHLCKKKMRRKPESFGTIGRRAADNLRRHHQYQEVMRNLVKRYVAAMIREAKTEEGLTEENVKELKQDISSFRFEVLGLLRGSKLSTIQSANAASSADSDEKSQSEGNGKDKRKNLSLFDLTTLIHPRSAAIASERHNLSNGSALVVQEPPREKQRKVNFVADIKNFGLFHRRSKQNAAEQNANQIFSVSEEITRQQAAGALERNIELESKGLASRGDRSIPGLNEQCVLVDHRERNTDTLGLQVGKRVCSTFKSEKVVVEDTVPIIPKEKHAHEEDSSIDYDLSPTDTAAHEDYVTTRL

[19] = target: T7, Leucine aminopeptidase (Plasmodium falciparum 3D7, UniProt Q8IL11); experiment: P. falciparum M17LAP inhibitors, primary screen, biochemical, fluorogenic H-Leu-NHMec substrate, 1536-well (AID 1619); type: functional
T7 sequence (Q8IL11 whole entry): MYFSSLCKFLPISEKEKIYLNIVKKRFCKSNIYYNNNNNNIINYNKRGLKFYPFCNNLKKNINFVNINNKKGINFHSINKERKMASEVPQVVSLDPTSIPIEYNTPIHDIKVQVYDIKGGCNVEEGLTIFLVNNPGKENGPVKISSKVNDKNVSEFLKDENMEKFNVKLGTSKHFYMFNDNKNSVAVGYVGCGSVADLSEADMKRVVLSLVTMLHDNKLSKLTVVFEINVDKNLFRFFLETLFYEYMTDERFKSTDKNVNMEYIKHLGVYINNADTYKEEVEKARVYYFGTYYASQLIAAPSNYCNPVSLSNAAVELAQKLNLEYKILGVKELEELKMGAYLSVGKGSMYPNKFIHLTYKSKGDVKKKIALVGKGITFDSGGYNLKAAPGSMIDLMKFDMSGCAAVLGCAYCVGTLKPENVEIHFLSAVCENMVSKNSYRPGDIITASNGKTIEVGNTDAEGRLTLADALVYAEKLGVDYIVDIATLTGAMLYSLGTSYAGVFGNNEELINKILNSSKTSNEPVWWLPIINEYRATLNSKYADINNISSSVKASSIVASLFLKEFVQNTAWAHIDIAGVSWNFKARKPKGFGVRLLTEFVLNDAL

[20] = Luminescence Cell-Based Dose Retest to Confirm Inhibitors of Cancer Stem Cells. [Related pubchem assays (depositor defined):AID2717, AID2721]; type: functional; details: Homo sapiens
[21] = target: Trypsin (Sus scrofa, UniProt P00761); experiment: porcine trypsin inhibitors, dose response, selectivity assay for Rce1 protease inhibitor project, biochemical, quenched peptide fluorescence, cherry-pick (AID 488789)
[22] = target: T8, CAAX prenyl protease 2 (Saccharomyces cerevisiae S288c, UniProt Q03530); type: biochemical
T8 sequence (Q03530 whole entry): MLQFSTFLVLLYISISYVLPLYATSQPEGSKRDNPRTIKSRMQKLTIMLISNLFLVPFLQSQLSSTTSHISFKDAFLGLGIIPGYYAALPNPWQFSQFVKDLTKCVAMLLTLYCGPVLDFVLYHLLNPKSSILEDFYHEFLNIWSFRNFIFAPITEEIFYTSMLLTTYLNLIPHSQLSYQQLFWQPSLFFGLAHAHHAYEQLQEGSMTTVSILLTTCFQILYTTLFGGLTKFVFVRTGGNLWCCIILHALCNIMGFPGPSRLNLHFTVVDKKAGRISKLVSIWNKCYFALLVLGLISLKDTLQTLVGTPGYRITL

[23] = target: G-protein coupled receptor 35 (Homo sapiens, UniProt Q9HC97); experiment: GPR35 antagonists blocking zaprinast-driven arrestin recruitment, primary screen, imaging, U2OS, beta-arrestin-GFP, zaprinast agonist (AID 2058); type: functional;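 note: antagonist potency meaning inhibition of agonist-induced arrestin redistribution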
[24] = target: Troponin, cardiac muscle (Homo sapiens, UniProt P19429+P45379+P63316); experiment: Fluorescence-based biochemical high throughput dose response assay for activators of the calcium sensitivity of cardiac Regulated Thin Filaments (RTF). [Related pubchem assays (depositor defined):AID493008, AID493018, AID504382, AID504383]; type: protein-complex assay

O=C(Cc1cnn(-c2ccccc2)c1)c1ccc(O)c(O)c1O
IC50 [1]: 4.69 µM (active) | IC50 [2]: 34.5 µM (not active) | EC50 [3]: > 38 µM (not active) | IC50 [4]: > 100 µM (inactive) | IC50 [5]: 75.7 µM (active) | IC50 [6]: 39.5 µM (active) | EC50 [7]: > 150 µM (inactive)

CCNC(=O)NC(=O)C(C)OC(=O)c1cc2c(C)nn(Cc3ccccc3)c2s1 (configuration not stated)
EC50 [8]: > 50 µM (inactive)

COC(=O)C1=C(C)N(Cc2ccccc2)C(NCCc2cccnc2)=N[C@H]1c1ccccc1
IC50 [9]: 1.08 µM (active) | IC50 [10]: 2.69 µM (active) | IC50 [11]: 4.62 µM (active)

Cc1ccc(CNC(=O)C(C)OC(=O)c2c(C)nn(Cc3ccc(C)cc3)c2Cl)cc1 (configuration not stated)
EC50 [8]: > 50 µM (inactive)

CCC1(C)Cc2c(sc3[nH]c(=O)[nH]c(=O)c23)CS1 (configuration not stated)
IC50 [12]: 45.1 µM (active) | IC50 [5]: 88.7 µM (active) | IC50 [13]: 38.5 µM (active)

Cc1ccc(-n2c(C)cc(/C=N/NC(=O)Cn3c4ccccc4c(=O)c4ccccc43)c2C)cc1
IC50 [12]: 13 µM (active) | IC50 [13]: 2.37 µM (active)

CC(=O)Oc1ccc(N2C(=O)C3C(C2=O)C2(C)C=CC3(C)O2)cc1 (configuration not stated)
IC50 [14]: 5.05 µM (active) | IC50 [15]: 1.93 µM (active) | IC50 [16]: 6.39 µM (active) | IC50 [17]: 7.82 µM (active)

COc1cc2ccccc2c2c1CCCC2=O
EC50 [18]: 2.99 µM (active)

O=C(Nc1cc(N2CCOCC2)ncn1)NC1(C(F)(F)F)Oc2ccc(Cl)cc2O1 (configuration not stated)
IC50 [1]: 18.1 µM (active) | IC50 [4]: 10.4 µM (active) | IC50 [19]: 32.4 µM (active) | AC50 [20]: 7.43 µM (active)

O=C(COc1ccc2ccc(=O)oc2c1)NCCc1c[nH]c2ccc(F)cc12
AC50 [21]: 9.56 µM (active) | AC50 [22]: 9.47 µM (active)

O=C(O)COc1ccc(/C=C/C(=O)c2ccc(C3CCCCC3)cc2)cc1
IC50 [23]: 2.16 µM (active) | IC50 [5]: 47.7 µM (active)

CC1=CC(=C(C#N)c2nc3ccccc3s2)C=C(C)N1c1ccc(F)cc1
EC50 [24]: > 7.94 µM (active)

COc1ccc(/C=C2\SC(=S)N(CCCC(=O)Nc3ccccc3C(=O)O)C2=O)cc1OC
EC50 [24]: 12.9 µM (inactive)

— ChEMBL document CHEMBL1201862, “PubChem BioAssay data set” (2004)
